The subject of assay [1] is anesthetized rats. The assay can be described thus: Basal cardiovascular parameters in anesthetized, pre-treated rats. As to conditions: 15 min after i.v. bolus (enalaprilat 0.1 mg/kg, Plummer's inhibitor 0.75 mg/kg, icatibant 10 μg/kg, B-9858 20 μg/kg), means ± SEM. Type of assay: in vivo, rat. From the text:
(§1) The femoral arterial catheter implanted to monitor direct blood pressure was connected to a pressure transducer (TSD 104A, Biopac Systems Inc., Goleta, CA, USA) coupled to a computer-based data acquisition system (MP100, Biopac Systems Inc., Goleta, CA, USA) to continuously record pulsate arterial pressure. The animals were maintained under anesthesia and were warmed with a heated pad.
(§2) The mechanism subserving the cardiovascular responses to i.v. injections of increasing doses of the different BK agonists was first investigated in animals pretreated with the ACE inhibitor, enalaprilat. In these experiments, the animals were separated in five groups depending on the agonist tested. Enalaprilat was intravenously administered as bolus (0.1 mg/kg, 0.1 ml) following a 10 min period of baseline measurements of HR and blood pressure. Fifteen minutes later, dose-response curves to BK, BK-His-Leu, B-9972, BK-Arg, or BK-Ala-Pro were obtained in the indicated group of rats, as described above. Further experiments were made in rats pretreated with the Plummer’s inhibitor (mercaptomethyl- 3-guanidinoethylthiopropanoic acid), a high affinity inhibitor of arginine carboxypeptidases that is an arginine analog ([Plummer and Ryan, 1981]). In these experiments, the inhibitor was intravenously administered as bolus (0.75 mg/kg, 0.1 ml) followed 15 min later by the i.v. injection of increasing doses of BK or BK-Arg, in two different groups of rats. […] In these experiments, icatibant was intravenously administered as bolus (10 μg/kg, 0.1 ml) 15 min before the i.v. injection of increasing doses of BK, BK-His-Leu, B-9972, BK-Ala-Pro, or BK-Arg, in separated groups of rats, as above. The doses of different inhibitors were based on preliminary experiments and from studies performed by others ([Ishida et al., 1989]; [Wirth et al., 1991]; [Muto et al., 2003]), with deliberate low dosing for peptidase inhibitors for the sake of their selectivity of action. Whether a component of BK hemodynamic effects is mediated by the B1R was assessed in rats pre-treated with the specific B1R antagonist, B-9858 (20 μg/kg, 0.1 ml). B-9858 (Lys-Lys-[Hyp^3, Igl^5, D-Igl^7, Oic^8]des-Arg^9-BK) is a selective B1R antagonist ([Leeb-Lundberg et al., 2005]) that has been found active at the rat B1R ([Scott et al., 2003]).
Baseline values for MAP and HR measured in the untreated control group or 15 min after i.v. pretreatment with enalaprilat, icatibant or the Plummer’s inhibitor are shown in Table 2. While no significant changes in basal values of MAP were noted between the enalaprilat and Plummer’s inhibitor pretreated groups, a slight but significant reduction in basal MAP was found between the icatibant pretreated group and the control group. Furthermore, slight but significant reductions in basal HR were noted between the icatibant and Plummer’s inhibitor pretreated groups and the control group, while a small significant increase in basal HR was found between the enalaprilat pretreated groups and the control group.

Assay [2] concerns anesthetized rats. The assay can be described thus: In vivo vascular reactivity: hypotensive (MAP) response to i.v. bolus injections. Further details: species or system rat. Particulars: for doses at which the decrease in MAP was significant compared to vehicle: doses tested 0.025-6.4 μg/kg, untreated anesthetized rats, Dunnett's test. The method, then:
(§3) At the end of the acclimation period, the rats were anesthetized with sodium pentobarbital (50 mg kg^-1, i.p., supplemented as required) and had two separate catheters implanted; one into the right jugular vein [for intravenous (i.v.) injection] and the other into the left femoral artery (for direct measurement of blood pressure and heart rate (HR). In some experiments, a pulsed Doppler flow probe ([Haywood et al., 1981]) was also implanted around the distal abdominal aorta (below the ileocecal artery) through a midline abdominal incision to monitor changes in hindquarter hemodynamic, according to the method developed by [Gardiner and Bennett (1988)] and as previously described ([Bachelard et al., 1992b]). The probes wires were connected to a pulsed Doppler monitoring system (VF-1 Doppler flowmeter; Crystal Biotech, Holliston, MA, USA) modified to operate with a pulse repetition frequency of 125 kHz ([Gardiner et al., 1990]) and fitted with HVPD-20 modules. The mean Doppler signal represents the average hindquarter blood flow velocity, a relative index of blood flow. […] Experiments started at least 30 min following the end of surgery in anesthetized rats.
as §1
The experiments were initiated after allowing at least 20 min for stabilization. Then, baseline measurements of HR and phasic and mean arterial blood pressure (MAP) were made over a period of 10 min. […] Peptides were dissolved in isotonic saline (0.9% NaCl) containing 0.1% BSA to prevent the adsorption of peptide to the glassware and plastic surfaces. All i.v. injections were given as 100 μl boluses which were washed in with a further 100 μl of saline (the dead space of the catheter). Only one peptide was tested per group of rats and each injection started with saline-BSA 0.1% followed by the lowest dose of peptide. The next dose was administered once all recorded cardiovascular parameters had returned to baseline after the previous injection (usually 2–10 min). At the end of the experiments each animal was euthanized with an overdose of sodium pentobarbitone (240 mg/kg, i.v.).
as §2, with “The doses of different inhibitors were based on preliminary experiments and from studies performed by others ([Ishida et al., 1989]; [Wirth et al., 1991]; [Muto et al., 2003]), with deliberate low dosing for peptidase inhibitors for the sake of their selectivity of action. Whether a component of BK hemodynamic effects is mediated by the B1R was assessed in rats pre-treated with the specific B1R antagonist, B-9858 (20 μg/kg, 0.1 ml). B-9858 (Lys-Lys-[Hyp^3, Igl^5, D-Igl^7, Oic^8]des-Arg^9-BK) is a selective B1R antagonist ([Leeb-Lundberg et al., 2005]) that has been found active at the rat B1R ([Scott et al., 2003]).” left out

Assay [3] deals with anesthetized rats. The assay can be described thus: In vivo vascular reactivity: heart rate changes after i.v. bolus injections. Details: species or system rat. As to the method:
as §3, with “rats. […]” for “rats.”
The experiments were initiated after allowing at least 20 min for stabilization. […] The next dose was administered once all recorded cardiovascular parameters had returned to baseline after the previous injection (usually 2–10 min). […]

Where [4] appears, read: icatibant 10 μg/kg i.v. 15 min before, agonist 0.025-6.4 μg/kg i.v.

Turning to `C[C@H](N[C@@H](CCc1ccccc1)C(=O)O)C(=O)N1CCC[C@H]1C(=O)O` [Enalaprilat, enalaprilat], the “Basal mean arterial blood pressure (MAP) after pre-treatment” value (shortened to “Basal mean arterial blood pressure (MAP)”) in the assay on anesthetized rats [1] (control 103.1 ± 1.8) turned out to be 99.2 ± 1.5. Besides, in the assay with anesthetized rats [1] (control 393 ± 6, in bpm), the “Basal heart rate (HR) after pre-treatment” value (“Basal heart rate (HR)” for short) is recorded as 416 ± 6ˆ*.

Turning to `N=C(N)NCCSCC(CS)C(=O)O` (stereo not drawn) [Plummer’s inhibitor, mercaptomethyl-3-guanidinoethylthiopropanoic acid], the “Basal mean arterial blood pressure (MAP)” value in the assay with anesthetized rats [1] (control 103.1 ± 1.8) is given as 107.1 ± 4.7. Also, the “Basal heart rate (HR)” value in the assay with anesthetized rats [1] (control 393 ± 6, in bpm) was 353 ± 17ˆ*.

Turning to “D-Arg-[Hyp^3, Thi^5, D-Tic^7, Oic^8] bradykinin [Icatibant]”, the “Basal mean arterial blood pressure (MAP)” value in the assay with anesthetized rats [1] (control 103.1 ± 1.8, in mmHg) is recorded as 95.3 ± 1.6ˆ*. Further, in the assay with anesthetized rats [1] (control 393 ± 6, in bpm), the “Basal heart rate (HR)” value is 356 ± 8ˆ**.

For “D-Arg-[Hyp^3,Igl^5,Oic^7,Igl^8]-BK [B-9972]”, the “effect of enalaprilat pretreatment on the dose-dependent hypotensive response” value in the assay with anesthetized rats [2] (enalaprilat 0.1 mg/kg i.v. 15 min before, agonist 0.025-6.4 μg/kg i.v.) is listed as “not affected”. The “half-recovery time of hypotensive episodes compared with a similar dose of BK” value in the assay with anesthetized rats [2] (i.v. bolus, for B-9972 the highest dose) is recorded as “significantly longer”. Further, the “reduction of apparent hypotensive potency by icatibant” value in the assay with anesthetized rats [2] (icatibant 10 μg/kg i.v. 15 min before) was “about 10 fold”. In addition, the “effect of icatibant pretreatment on the hypotensive response” value with anesthetized rats [2] (setting [4]) is recorded as “significantly abated”.

For the molecule “Lys-Lys-[Hyp^3, Igl^5, D-Igl^7, Oic^8]des-Arg^9-BK [B-9858]”, the “Basal mean arterial blood pressure (MAP)” value in the assay on anesthetized rats [1] (control 103.1 ± 1.8) worked out at 103.3 ± 6.2. Besides, in the assay with anesthetized rats [1] (control 393 ± 6, in bpm (unit assumed)), the “Basal heart rate (HR)” value is on record as 397 ± 11.

“bradykinin (RPPGFSPFR; Bradykinin; UniProt P01042 381-389, looked up) [BK]”: the “effect of B-9858 (B1R antagonist) pretreatment on the hypotensive response” value in the assay on anesthetized rats [2] (B-9858 20 μg/kg i.v.) is on record as “did not significantly modify”. In the assay on anesthetized rats [2] (Plummer's inhibitor 0.75 mg/kg i.v. 15 min before), the “effect of Plummer's inhibitor pretreatment on the hypotensive response” value is recorded as “no effect”. Moreover, in the assay with anesthetized rats [2] (enalaprilat 0.1 mg/kg i.v. 15 min before), the “potentiation of the hypotensive effect by enalaprilat pretreatment” value was roughly 15 fold. Moreover, in the assay on anesthetized rats [2] (i.v. bolus), the “doses at which the decrease in MAP was significant compared to vehicle” value is no less than 0.4 µg/kg. The “effect of icatibant pretreatment on the hypotensive response” value with anesthetized rats [2] (setting [4]) was “significantly and extensively inhibited”. In the assay with anesthetized rats [3], the “dose at which a significant bradycardia preceded tachycardia” value came out at 6.4 µg/kg. For the same molecule, the “doses at which tachycardia accompanied the hypotensive response” value in the assay on anesthetized rats [3] (doses tested 0.025-6.4 μg/kg, compared with vehicle) was no less than 0.4 µg/kg.

In the case of des-Arg^9-BK, in the assay on anesthetized rats [2] (i.v. bolus, compared to vehicle, n = 9), the “effect on MAP at the dose of 0.025 μg/kg” value is “no significant effect”. For the same molecule, the “doses at which the decrease in MAP was significant compared to vehicle” value with anesthetized rats [2] (i.v. bolus) was no less than 0.1 µg/kg.

The values above are taken from PMC4709452 (Frontiers in Pharmacology, 2016).
